Test results reported in publication PMC6218659, “Structures of DPAGT1 Explain Glycosylation Disease Mechanisms and Advance TB Antibiotic Design” (Cell, 2018).
≈ marks a conversion by molar mass, not a printed value. Read-outs that look alike come from different tables or passages of the source.

Assays:
HepG2 cells = test: Cell proliferation assay (MTS); assay type: cell-based, human; settings: for LD50 values, HepG2: MTS cell proliferation assay, 24 hrs, highest concentration 400 µg mL-1
Description: (§1) In sterile 96-well plate, each well was seeded with ∼1x10^5 cells. The cells are then grown confluent overnight in 100 μl DMEM with 10% FBS. The medium is replenished with DMEM with 2% FBS and added vehicle control or test substance the next day. For test substance in methanol, stock was added to 25 μl of DMEM with 2% FBS or PBS and placed in the laminar flow hood to let the methanol evaporate (about 1-3 hrs). Once the methanol has evaporated, DMEM with 2% FBS was added to final volume of 100 μl of desired test concentration. […] Cells are grown for additional 24 hrs. The cell viability was determined by using Promega CellTiter 96^© AQueous One Solution Cell Proliferation Assay (3-(4,5-dimethylthiazol-2-yl)-5-(3-carboxymethoxyphenyl)-2-(4-sulfophenyl)-2H-tetrazolium, inner salt; MTS) System following the manufacture protocol.

HEK293 cells = test: Cell proliferation assay (MTS); assay type: cell-based, human; settings: for LD50 values, HEK293: MTS cell proliferation assay, 24 hrs, highest concentration 400 µg mL-1
Description: as §1

Raji cells = test: Cell proliferation assay (MTS); assay type: cell-based, human; settings: 24 hrs
Description: as §1

Mtb H37Rv ATCC27294 = test: Minimum inhibitory concentrations testing against Mtb; assay type: cell-based, Mycobacterium tuberculosis; settings: for MIC: Mycobacterium tuberculosis
B. subtilis EC1524 = test: Micro-broth dilution and drop plate antimicrobial susceptibility test; assay type: cell-based, Bacillus subtilis
Description: (§2) In a sterile 96-well plate, serial dilutions were made with the test substance to final volume of 50 μl. Inoculum was then prepared in Mueller-Hinton broth to 0.5 McFarland and diluted before adding 50 μl to the well to make ∼1x10^5 CFU/ml. The culture plate was incubated at 35 °C for 20-24 hrs. A positive growth control and sterility wells were also prepared along with the culture wells. Absorbance at OD600 was taken using BMG Labtech SPECTROstar Omega spectrophotometer. MIC is determined by the lowest concentration without growth. IC50 is determined from plotting a dose-response curve, see Data Analysis below. To determine the MBC, using a multi-channel pipette, 1 μl of culture broth was taken from the same 96-well microdilution growth plate and carefully inoculated on surface of MH agar plate. The plate is then incubated for additional 20 hrs. at 35 °C. The MBC value is the lowest concentration without observed growth on the agar.

B. cereus ATCC11778 = test: as above; assay type: cell-based, Bacillus cereus
Description: as §2

E. coli ATCC25922 = test: as above; assay type: cell-based; settings: Escherichia coli
Description: as §2

P. aeruginosa ATCC27853 = test: as above; assay type: cell-based; settings: Pseudomonas aeruginosa
Description: as §2

S. aureus ATCC29219 = test: as above; assay type: cell-based; settings: Staphylococcus aureus
Description: as §2

[1] = 168 h, Mtb H37Rv, minimal growth medium, read-out: 1-week MIC in GAST/Fe
[2] = 168 h, Mtb H37Rv, rich 7H9-based growth medium, read-out: 1-week MIC in 7H9/ADC/Tw
[3] = minimal lethal dose / MIC, 800 μg mL-1 used for >400
[4] = serial 2-fold dilutions (Table S6)

## CC(C)(C)OC(=O)N[C@H]1[C@H](O[C@H]2O[C@H](CO)[C@@H](O)[C@H](O)[C@H]2NC(=O)OC(C)(C)C)O[C@H](C[C@@H](O)[C@H]2O[C@@H](n3ccc(=O)[nH]c3=O)[C@H](O)[C@@H]2O)[C@H](O)[C@@H]1O [TUN-Boc,Boc, 10',2"-Di-N-Boc-α-D-glucosamine-(1”-11')-tunicamyl uracil]
HepG2 cells
  LD50 values, HepG2: N/A (N/A = not available. No or low cytotoxicity observed at highest, saturating concentration tested (400 µg mL-1))
HEK293 cells
  LD50 values, HEK293: N/A (N/A = not available. No or low cytotoxicity observed at highest, saturating concentration tested (400 µg mL-1))
Raji cells
  LD50 values, Raji: 608.9 ± 394.9 µg/mL
Mtb H37Rv ATCC27294; [1]
  MIC: > 60 µg/mL
Mtb H37Rv ATCC27294; [2]
  MIC: > 60 µg/mL

## CCCCCCCCCCCC(=O)N[C@H]1[C@H](O[C@H]2O[C@H](CO)[C@@H](O)[C@H](O)[C@H]2NC(=O)CCCCCCCCCCC)O[C@H](C[C@@H](O)[C@H]2O[C@@H](n3ccc(=O)[nH]c3=O)[C@H](O)[C@@H]2O)[C@H](O)[C@@H]1O [TUN-12,12, Di-N-dodecanoyl-tunicamycin]
B. subtilis EC1524; Bacillus subtilis, EC1524
  IC50: 58.9 µg/mL (≈ 63.3 µM)
  MBC: > 200 µg/mL
  MIC: 83 ± 29 µg/mL (≈ 89.1 µM)
B. subtilis EC1524; Bacillus subtilis, EC1524, read-out: Minimal Inhibitory Concentration, B. subtilis EC1524
  MIC: 100 µg/mL (≈ 107 µM)
B. subtilis EC1524; [3]
  Relative Therapeutic Index (RTI), B. subtilis EC1524: 8
HepG2 cells
  LD50 values, HepG2: N/A (N/A = not available. No or low cytotoxicity observed at highest, saturating concentration tested (400 µg mL-1))
HepG2 cells; [4]
  Minimal Lethal Dose, HepG2: > 400 µg/mL
HEK293 cells
  LD50 values, HEK293: N/A (N/A = not available. No or low cytotoxicity observed at highest, saturating concentration tested (400 µg mL-1))
HEK293 cells; [4]
  Minimal Lethal Dose, HEK 293: > 400 µg/mL
Raji cells
  LD50 values, Raji: 81.29 ± 30.20 µg/mL
B. cereus ATCC11778; Bacillus cereus, ATCC11778
  IC50: 1.4 ± 0.47 µg/mL (≈ 1.5 µM)
  MBC: > 200 µg/mL
  MIC: 42 ± 14 µg/mL (≈ 45.1 µM)
B. cereus ATCC11778; Bacillus cereus, ATCC 11778 / NRRL11778, read-out: Minimal Inhibitory Concentration, B. cereus NRRL 11778
  MIC: 50 µg/mL (≈ 53.7 µM)
B. cereus ATCC11778; [3]
  Relative Therapeutic Index (RTI), B. cereus NRRL 11778: 16
E. coli ATCC25922
  IC50: 182 µg/mL (≈ 195 µM)
  MBC: > 400 µg/mL
  MIC: 330 ± 120 µg/mL (≈ 354 µM)
P. aeruginosa ATCC27853
  IC50: 81.7 µg/mL (≈ 87.8 µM)
  MBC: > 400 µg/mL
  MIC: 170 ± 6 µg/mL (≈ 183 µM)
S. aureus ATCC29219
  IC50: 61.9 µg/mL (≈ 66.5 µM)
  MBC: > 400 µg/mL
  MIC: 170 ± 60 µg/mL (≈ 183 µM)
Mtb H37Rv ATCC27294; 168 h, read-out: 1-week MIC in 7H9/ADC/Tw
  MIC: 18.7 ± 5.4 µg/mL
Mtb H37Rv ATCC27294; 168 h, read-out: 1-week MIC in GAST/Fe
  MIC: 6.9 ± 6.2 µg/mL
Mtb H37Rv ATCC27294; 168 h, read-out: Minimal Inhibitory Concentration, Mtb H37RV a
  MIC: 18.7 µg/mL
Mtb H37Rv ATCC27294; 168 h, read-out: Minimal Inhibitory Concentration, Mtb H37RV b
  MIC: 6.9 µg/mL
Mtb H37Rv ATCC27294; minimal lethal dose / MIC, 7H9/ADC/Tw, 800 μg mL-1 used for >400
  Relative Therapeutic Index (RTI), Mtb H37RV a: 43
Mtb H37Rv ATCC27294; minimal lethal dose / MIC, GAST/Fe, 800 μg mL-1 used for >400
  Relative Therapeutic Index (RTI), Mtb H37RV b: 116

## C[C@@H](O)[C@H]1C(=O)N2C(C(=O)O)=C(S[C@@H]3CN[C@H](C(=O)N(C)C)C3)[C@H](C)[C@H]12 [meropenem, reference compound]
Mtb H37Rv ATCC27294; Mtb H37Rv, with clavulanate at a fixed concentration of 100 μM, read-out: MIC concentration for control
  MIC: 2 µM

## CC(=O)N[C@H]1C(O)O[C@H](C[C@@H](O)[C@H]2O[C@@H](n3ccc(=O)[nH]c3=O)[C@H](O)[C@@H]2O)[C@H](O)[C@@H]1O (some centres unmarked) [(2), N-acetyl-tunicamyl-uracil]
HepG2 cells
  LD50 values, HepG2: N/A (N/A = not available. No or low cytotoxicity observed at highest, saturating concentration tested (400 µg mL-1))
HEK293 cells
  LD50 values, HEK293: N/A (N/A = not available. No or low cytotoxicity observed at highest, saturating concentration tested (400 µg mL-1))
Raji cells
  LD50 values, Raji: 303.80 ± 9.83 µg/mL
Mtb H37Rv ATCC27294; [1]
  MIC: 42.5 ± 3.5 µg/mL
Mtb H37Rv ATCC27294; [2]
  MIC: > 60 µg/mL
